Laboratory results published in US6737383B1, “Herbicidal oxadiazolidines” (priority 1999, dated 2004).

Assays:
rice = test: Test B flood test rice; format: in vivo, Oryza sativa
How it was run: (§1)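 Plants were grown to the 2-leaf stage before treatment with test chemical, then held in a greenhouse for twelve to sixteen days. Injury was visually rated against untreated controls on a 0–10 scale, where 0 is no effect and 10 is complete control.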

corn = test: Test B pre/postemergence corn; format: in vivo, Zea mays
How it was run: (§2)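 Test chemicals in a non-phytotoxic solvent mixture with surfactant were sprayed preemergence onto planted seeds and postemergence onto plants 2 to 18 cm tall (1- to 4-leaf stage). After twelve to sixteen days in a greenhouse, injury was visually rated against untreated controls from 0 (no effect) to 10 (complete control).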

crabgrass = test: Test B pre/postemergence crabgrass; format: in vivo, Digitaria sanguinalis
How it was run: as §2

cocklebur = test: Test B pre/postemergence cocklebur; format: in vivo, Xanthium strumarium
How it was run: as §2

sugar beet = test: Test B pre/postemergence sugar beet; format: in vivo, Beta vulgaris; details: for Plant response rating, Sugarbeets: scale of 0 to 10 where 0 is no effect and 10 is complete control
How it was run: as §2

surinam grass = test: Test B pre/postemergence surinam grass; format: in vivo, Brachiaria decumbens
How it was run: as §2

wild oat = test: Test B pre/postemergence wild oat; format: in vivo, Avena fatua; details: for Plant response rating, Wild oats: scale of 0 to 10 where 0 is no effect and 10 is complete control
How it was run: as §2

blackgrass = test: Test B pre/postemergence blackgrass; format: in vivo, Alopecurus myosuroides
How it was run: as §2

velvetleaf = test: Test B pre/postemergence velvetleaf; format: in vivo, Abutilon theophrasti; details: for Plant response rating, Velvetleaf: scale of 0 to 10 where 0 is no effect and 10 is complete control
How it was run: as §2

morningglory = test: Test B pre/postemergence morningglory; format: in vivo, Ipomoea hederacea; details: for Plant response rating, Morningglory: scale of 0 to 10 where 0 is no effect and 10 is complete control
How it was run: as §2

rape = test: Test B pre/postemergence rape; format: in vivo, Brassica napus; details: for Plant response rating, Rape: scale of 0 to 10 where 0 is no effect and 10 is complete control
How it was run: as §2

wheat = test: Test B pre/postemergence wheat; format: in vivo, Triticum aestivum; details: for Plant response rating, Wheat: scale of 0 to 10 where 0 is no effect and 10 is complete control
How it was run: as §2

soybean = test: Test B pre/postemergence soybean; format: in vivo, Glycine max; details: for Plant response rating, Soybean: scale of 0 to 10 where 0 is no effect and 10 is complete control
How it was run: as §2

smallflower flatsedge = test: Test B flood test smallflower flatsedge; format: in vivo, Cyperus difformis
How it was run: as §1

giant foxtail = test: Test B pre/postemergence giant foxtail; format: in vivo, Setaria faberii
How it was run: as §2

pigweed = test: Test B pre/postemergence pigweed; format: in vivo, Amaranthus retroflexus; details: for Plant response rating, Redroot pigweed: scale of 0 to 10 where 0 is no effect and 10 is complete control
How it was run: as §2

[1] = Rate 62 g/ha, flood test species, Pre-emergence, visual evaluation after twelve to sixteen days
[2] = Rate 125 g/ha, under heading Pre-emergence, flood test species, visual evaluation after twelve to sixteen days
[3] = Rate 250 g/ha, Pre-emergence (flood test species), scale 0 to 10, 0 is no effect, 10 is complete control
[4] = Rate 500 g/ha, Pre-emergence, flood test species, scale 0 to 10 (0 no effect, 10 complete control)
[5] = Postemergence, Rate 250 g/ha, scale 0 to 10
[6] = Postemergence, Rate 500 g/ha, scale of 0 to 10 where 0 is no effect and 10 is complete control
[7] = Preemergence, Rate 62 g/ha, scale of 0 to 10 where 0 is no effect and 10 is complete control
[8] = Preemergence, Rate 125 g/ha, scale of 0 to 10 where 0 is no effect and 10 is complete control
[9] = Preemergence, Rate 250 g/ha, scale 0 to 10, 0 is no effect, 10 is complete control
[10] = Preemergence, Rate 500 g/ha, scale 0 to 10, 0 is no effect, 10 is complete control
[11] = Rate 62 g/ha, Postemergence, scale 0 to 10 (0 no effect, 10 complete control)
[12] = Rate 125 g/ha, Postemergence, scale 0 to 10, 0 is no effect, 10 is complete control

C=CC(CC)n1c(=O)on(C(=O)N(c2ccccc2)C(C)C)c1=O (stereo not drawn) [Compound 455]
9: Crabgrass plant response rating (crabgrass; [6]) | B. signalgrass plant response rating (surinam grass; [9]) | B. signalgrass plant response rating (surinam grass; [10]) | Wild oats plant response rating (wild oat; [9]) | Blackgrass plant response rating (blackgrass; [5]) | Blackgrass plant response rating (blackgrass; [6]) | Rape plant response rating (rape; [10]) | Giant foxtail plant response rating (giant foxtail; [6])
3: Sugarbeets plant response rating (sugar beet; [9]) | Plant response rating, B. signalgrass (surinam grass; [8]) | Plant response rating, Wild oats (wild oat; Preemergence, Rate 125 g/ha) | Plant response rating, Blackgrass (blackgrass; [7]) | Velvetleaf plant response rating (velvetleaf; [5]) | Morningglory plant response rating (morningglory; [11]) | Plant response rating, Rape (rape; Preemergence, Rate 125 g/ha)
7: Corn plant response rating (corn; [10]) | Blackgrass plant response rating (blackgrass; [10]) | Giant foxtail plant response rating (giant foxtail; [5]) | Giant foxtail plant response rating (giant foxtail; [11]) | Giant foxtail plant response rating (giant foxtail; [12]) | Plant response rating, Redroot pigweed (pigweed; Preemergence, Rate 62 g/ha)
4: Corn plant response rating (corn; [9]) | Crabgrass plant response rating (crabgrass; [5]) | Crabgrass plant response rating (crabgrass; [11]) | Plant response rating, Blackgrass (blackgrass; [8]) | Plant response rating, Velvetleaf (velvetleaf; Preemergence, Rate 125 g/ha) | Morningglory plant response rating (morningglory; [10]) | Soybean plant response rating (soybean; [5])
1: Plant response rating, Sugarbeets (sugar beet; Preemergence, Rate 125 g/ha) | B. signalgrass plant response rating (surinam grass; Postemergence, Rate 250 g/ha, scale 0 to 10, 0 no effect, 10 complete control) | Soybean plant response rating (soybean; [11])
8: Blackgrass plant response rating (blackgrass; [12]) | Morningglory plant response rating (morningglory; [5]) | Morningglory plant response rating (morningglory; [12]) | Rape plant response rating (rape; [9])
2: Plant response rating, Corn (corn; [8]) | Plant response rating, Velvetleaf (velvetleaf; Preemergence, Rate 62 g/ha) | Wheat plant response rating (wheat; [10]) | Soybean plant response rating (soybean; [10]) | Soybean plant response rating (soybean; [12]) | Redroot pigweed plant response rating (pigweed; [11]) | Redroot pigweed plant response rating (pigweed; [12])
5: Plant response rating, Crabgrass (crabgrass; [7]) | Plant response rating, Crabgrass (crabgrass; [8]) | B. signalgrass plant response rating (surinam grass; [6]) | Velvetleaf plant response rating (velvetleaf; [9]) | Redroot pigweed plant response rating (pigweed; [5])
0: Plant response rating, Rice (0 to 10 scale, 0 is no effect, 10 is complete control) (rice; [1]) | Rice plant response rating (0 to 10 scale, 0 is no effect, 10 is complete control) (rice; [2]) | Rice plant response rating (rice; [3]) | Rice plant response rating (rice; [4]) | Corn plant response rating (corn; [5]) | Corn plant response rating (corn; [6]) | Plant response rating, Corn (corn; [7]) | Corn plant response rating (corn; [11]) | Corn plant response rating (corn; [12]) | Cocklebur plant response rating (cocklebur; [5]) | Cocklebur plant response rating (cocklebur; [6]) | Plant response rating, Cocklebur (cocklebur; [7]) | Plant response rating, Cocklebur (cocklebur; [8]) | Cocklebur plant response rating (cocklebur; [9]) | Cocklebur plant response rating (cocklebur; [10]) | Cocklebur plant response rating (cocklebur; [11]) | Cocklebur plant response rating (cocklebur; [12]) | Sugarbeets plant response rating (sugar beet; [5]) | Plant response rating, Sugarbeets (sugar beet; Preemergence, Rate 62 g/ha) | Sugarbeets plant response rating (sugar beet; [11]) | Sugarbeets plant response rating (sugar beet; [12]) | Plant response rating, B. signalgrass (surinam grass; [7]) | B. signalgrass plant response rating (surinam grass; [11]) | B. signalgrass plant response rating (surinam grass; [12]) | Wild oats plant response rating (wild oat; [5]) | Plant response rating, Wild oats (wild oat; Preemergence, Rate 62 g/ha) | Wild oats plant response rating (wild oat; [11]) | Wild oats plant response rating (wild oat; [12]) | Velvetleaf plant response rating (velvetleaf; [11]) | Velvetleaf plant response rating (velvetleaf; [12]) | Plant response rating, Morningglory (morningglory; Preemergence, Rate 62 g/ha) | Plant response rating, Morningglory (morningglory; Preemergence, Rate 125 g/ha) | Morningglory plant response rating (morningglory; [9]) | Rape plant response rating (rape; [5]) | Plant response rating, Rape (rape; Preemergence, Rate 62 g/ha) | Rape plant response rating (rape; [11]) | Rape plant response rating (rape; [12]) | Wheat plant response rating (wheat; [5]) | Plant response rating, Wheat (wheat; Preemergence, Rate 62 g/ha) | Plant response rating, Wheat (wheat; Preemergence, Rate 125 g/ha) | Wheat plant response rating (wheat; [9]) | Wheat plant response rating (wheat; [11]) | Wheat plant response rating (wheat; [12]) | Plant response rating, Soybean (soybean; Preemergence, Rate 62 g/ha) | Plant response rating, Soybean (soybean; Preemergence, Rate 125 g/ha) | Soybean plant response rating (soybean; [9]) | Plant response rating, S. Flatsedge (0 to 10 scale, 0 is no effect, 10 is complete control) (smallflower flatsedge; [1]) | S. Flatsedge plant response rating (0 to 10 scale, 0 is no effect, 10 is complete control) (smallflower flatsedge; [2]) | S. Flatsedge plant response rating (smallflower flatsedge; [3]) | S. Flatsedge plant response rating (smallflower flatsedge; [4])
10: Crabgrass plant response rating (crabgrass; [9]) | Crabgrass plant response rating (crabgrass; [10]) | Wild oats plant response rating (wild oat; [10]) | Plant response rating, Giant foxtail (giant foxtail; [7]) | Plant response rating, Giant foxtail (giant foxtail; [8]) | Giant foxtail plant response rating (giant foxtail; [9]) | Giant foxtail plant response rating (giant foxtail; [10]) | Plant response rating, Redroot pigweed (pigweed; Preemergence, Rate 125 g/ha) | Redroot pigweed plant response rating (pigweed; [9]) | Redroot pigweed plant response rating (pigweed; [10])
6: Sugarbeets plant response rating (sugar beet; [10]) | Blackgrass plant response rating (blackgrass; [9]) | Blackgrass plant response rating (blackgrass; [11]) | Velvetleaf plant response rating (velvetleaf; [10])
